# Source: patent US20050054620A1, “Paricalcitol as a chemotherapeutic agent” (priority 2003, published 2005)
# Legend:
# NCI-H929 cells [1] = assay: Cell cycle analysis by flow cytometry; type: cell-based, human; details: 10^−7M, 72 hrs
# Method: For cell cycle analysis, cells were exposed to 10^−7M 1,25(OH)2D3, 10^−7M paricalcitol or vehicle control for either 3 or 4 days. Total cells, both in suspension and adherent, were collected, washed, suspended in cold PBS. Then cells were fixed in 75% chilled methanol and stained with propidium iodine. Cell cycle status was analyzed on a Becton Dickinson Flow Cytometer.
# HCI-H929 cells were cultured with either paricalcitol (10^−7M) or 1,25(OH)2D3 (10^−7M) for 72 hrs, harvested and stained with propidium iodine (PI). Control cells were treated with vehicle alone.
# [2] = humans, cited from earlier work
# HT-29 cells = assay: Western blot of cell lysates; type: cell-based, human; details: 10^−7M, 72 hrs
# Method: Western blot analysis was used to determine the levels of proteins involved in cell cycle and differentiation. […] After centrifugation at 15,000×g for 15 min at 4° C., the suspension was collected. Protein concentrations were quantitated using the Bio-Rad assay (Bio-Rad Labolatories, Hercules, Calif.). […] The blots were developed using the Supersignal West Pico Chemiluminescent Substrate Kit (Pierce, Rockford, Ill.). In FIG. 4B, HT-29 cells were exposed to either paricalcitol (10^−7M) or 1,25(OH)2D3(10^−7M). Cell lysates were prepared after 72 hrs of culture and analyzed by Western blot. The Western blot was probed sequentially with antibodies for p27KIP1, p21WAF1, cyclin D1, c-myc and E-Cadherin (antibodies from Santa Cruz Biotechnology) as described in Example II. Control cells were treated with vehicle alone. The quantity of protein was normalized by comparison to the amount of GAPDH. In FIG. 4C, HT-29 and SW837 cells were cultured with either paricalcitol (10^−7M) or 1,25(OH)2D3 (10^−7M) for 72 hrs. Cell lysates were prepared and analyzed by Western blot which was probed sequentially with antibodies to COX-1 and COX-2 (Santa Cruz Biotechnology). Control cells were treated with vehicle alone. The amount of protein was normalized by comparison to the quantity of GAPDH.
# SW837 cells = assay: Western blot of cell lysates; type: cell-based, human; details: 10^−7M, 72 hrs
# Method: Western blot analysis was used to determine the levels of proteins involved in cell cycle and differentiation. […] After centrifugation at 15,000×g for 15 min at 4° C., the suspension was collected. Protein concentrations were quantitated using the Bio-Rad assay (Bio-Rad Labolatories, Hercules, Calif.). […] The blots were developed using the Supersignal West Pico Chemiluminescent Substrate Kit (Pierce, Rockford, Ill.). In FIG. 4C, HT-29 and SW837 cells were cultured with either paricalcitol (10^−7M) or 1,25(OH)2D3 (10^−7M) for 72 hrs. Cell lysates were prepared and analyzed by Western blot which was probed sequentially with antibodies to COX-1 and COX-2 (Santa Cruz Biotechnology). Control cells were treated with vehicle alone. The amount of protein was normalized by comparison to the quantity of GAPDH.
# NCI-H929 cells [3] = assay: TUNEL assay of apoptosis; type: cell-based, human; details: 10^−7M, 96 hrs, diluant control 4%
# Method: In FIG. […] Results represent the mean±SD of three independent experiments. A TUNEL assay was performed for immunohistochemical detection and quantification of programmed cell death at the single cell level, based on labeling of DNA strand breaks using the In Situ Cell Death Detection, POD (Roche, Indianapolis, Ind.). Early apoptosis was also detected by measuring annexin V protein in the cell membrane using Annexin V-FITC Kit (CLONTECH, Palo Alto, Calif.) followed by flow cytometric analysis.
# HL-60 cells [4] = assay: CD14 expression by flow cytometry; type: cell-based, human
# Method: In order to measure cell surface CD14 antigen on HL-60 cells, promyelocytic leukemia cell line, HL-60, was treated with either 1,25(OH)2D3 or paricalcitol (10^−7M) for 4 days and examined for CD14 expression by flow cytometry using CD14 antibody (DAKO, Carpinteria, Calif.), as described previously (Hisatake et al., supra, 2001). Murine IgG1 antibody (DAKO) was used as a control.
# Measurement of cell surface CD14 antigen on HL-60 cells by flow cytometry using CD14 antibody (DAKO, Carpinteria, Calif.), was determined as described previously (Hisatake et al. Blood 97:2427-2433 (2001)). Murine IgG1 antibody (DAKO) was used as a control.
# NCI-H929 cells [5] = assay: Western blot of cell lysates; type: cell-based, human; details: 10^−7M
# Method: Western blot analysis was used to determine the levels of proteins involved in cell cycle and differentiation. […] After centrifugation at 15,000×g for 15 min at 4° C., the suspension was collected. Protein concentrations were quantitated using the Bio-Rad assay (Bio-Rad Labolatories, Hercules, Calif.). […] The blots were developed using the Supersignal West Pico Chemiluminescent Substrate Kit (Pierce, Rockford, Ill.). In FIG. 3C, NCI-H929 cells were treated with either paricalcitol (10^−7M) or 1,25(OH)2D3 (10^−7M) and cell lysates were prepared after 72 hrs. Cell lysates were used for Western blot analysis and probed sequentially with antibodies to p27KIP1, Bcl-2 and Bax. Control cells were treated with vehicle alone. Amount of protein was normalized by comparison to the amount of GAPDH. […] The Bcl-2 and Bax antibodies were obtained from Santa Cruz Biotechnology Inc., Santa Cruz, Calif.
# NB-4 cells = assay: Western blot of cell lysates; type: cell-based, human; details: 10^−7 M, 72 hrs
# Method: (§1) Western blot analysis was used to determine the levels of proteins involved in cell cycle and differentiation. For western blot analysis, cells were washed twice in PBS, suspended in lysis buffer [50 mM Tris (pH 8.0), 150 mM NaCl, 0.1% SDS, 0.5% sodium deoxycholate, 1% NP40, […] phenylmethylsulfonyl fluoride, […] aprotinin, […] pepstatin, and […] leupetin] and placed on ice for 30 min. After centrifugation at 15,000×g for 15 min at 4° C., the suspension was collected. Protein concentrations were quantitated using the Bio-Rad assay (Bio-Rad Labolatories, Hercules, Calif.). Whole lysates ([…]) were resolved by 4-15% SDS polyacrylamide gel, transferred to an immobilon polyvinylidene difuride membrane (Amersham Corp., Arlington Heights, Ill.), and probed sequentially with a number of antibodies (p21WAF1, p27KIP1, PTEN, and GAPDH, Santa Cruz Biotechnology Inc., Santa Cruz, Calif.). The blots were developed using the Supersignal West Pico Chemiluminescent Substrate Kit (Pierce, Rockford, Ill.).
# (§2) Western blot analysis was performed as follows: cells were washed twice in PBS, suspended in lysis buffer (50 mM Tris at pH 8.0, 150 mM NaCl, 0.1% SDS, 0.5% sodium deoxycholate, 1% Nonidet P-40, phenylmethylsulfonyl fluoride at 100 μg/mL, aprotinin at 2 μg/mL, pepstatin at 1 μg/mL, and leupetin at 10 μg/mL), and placed on ice for 30 minutes. After centrifugation at 15,000×g for 15 minutes at 4° C., the suspension was collected. Protein concentrations were quantitated by using the Bio-Rad protein Assay Dye Reagent Concentrate (Bio-Rad Laboratories, Hercules, Calif.) according to the manufacture's recommendation. Whole cell lysates (40 μg) were resolved by SDS-polyacrylamide gel electrophoresis in a 4%-15% gel, transferred to a polyvinylidene difuride membrane (Immobilon, Amersham Corp., Arlington Heights, Ill.), and probed sequentially with antibodies against the following proteins: VDR, RXR, CEBPβ, Rb, Bcl-2, Bcl-XL, Bax, p-ERK, RARA, GAPDH (Santa Cruz Biotechnology Inc., Santa Cruz, CA). The blots were developed using the Supersignal West Pico Chemiluminescent Substrate Kit (Pierce, Rockford, Ill.).
# HL-60 cells [6] = assay: Western blot of cell lysates; type: cell-based, human
# Method: as §1, §2
smiles,measurement,setting,value
"C=C1/C(=C\C=C2/CCC[C@]3(C)[C@@H]([C@H](C)CCCC(C)(C)O)CC[C@@H]23)C[C@@H](O)C[C@@H]1O [1,25(OH)2D3]",increase of accumulation in G1/G0 phase,NCI-H929 cells [1],7%
same,increase in apoptotic sub-G1 population,NCI-H929 cells [1]; diluant control 4% sub-G1,16%
same,serum half-life,"[2]; paricalcitol compared with 1,25(OH)2D3",similar
same,peak serum levels,[2]; typical dose 0.5 to 1.0 mg/every other day,40 to 60 pg/mL
same,decrease of COX-2 expression,HT-29 cells,50%
same,decrease of c-myc expression,HT-29 cells,~40%
same,decrease of cyclin D1 expression,HT-29 cells,about 50%
same,effect on COX-1 expression,HT-29 cells,suppressed COX-2 but not COX-1 expression
same,increase of E-cadherin,HT-29 cells,about 6 fold
same,decrease of COX-2 expression,SW837 cells,50%
same,effect on COX-1 expression,SW837 cells,suppressed COX-2 but not COX-1 expression
same,apoptotic cells (TUNEL),NCI-H929 cells [3],20%
same,cells induced to express CD14,"HL-60 cells [4]; 10^−7M, 96 hrs",54%
same,decrease of Bcl-2 protein level,NCI-H929 cells [5]; 72 hrs,about 40%
same,effect on levels of Bax,NCI-H929 cells [5]; 72 hrs,did not affect
same,effect on levels of p21WAF1,NCI-H929 cells [5]; 96 hrs,little effect
same,increase of p27KIP1 expression,NCI-H929 cells [5]; 96 hrs,about 3 fold
same,PTEN expression (in words),NB-4 cells,induced PTEN expression
same,induction of p21WAF1,"HL-60 cells [6]; 10^−7M, 72 hr",approximately 7 fold
same,induction of p27KIP1,"HL-60 cells [6]; 10^−7M, 72 hr",about 6 fold
same,PTEN expression (in words),"HL-60 cells [6]; 10^−7 M, 72 hrs",induced PTEN expression
COc1cccc(-c2cc(=O)c3ccccc3o2)c1N [PD98059],monocytic differentiation (CD14) induced by paricalcitol and by the combination with arsenic trioxide,"HL-60 cells [4]; PD98059 25 μM, 2 days",blocked
